Measured values as given in ChEMBL document CHEMBL1130683, “Aryl C-glycosides: physiologically stable glycomimetics of sialyl Lewis X” (Bioorg Med Chem Lett, 1998).

How the values were obtained:
[1] = target: T1, P-selectin (Homo sapiens, UniProt P16109); assay: Inhibitory activity against P-selectin IgG chimeras binding to sLex coating 96 wells using competitive cell-free ELISA assay was determined.
T1 sequence (P16109 whole entry): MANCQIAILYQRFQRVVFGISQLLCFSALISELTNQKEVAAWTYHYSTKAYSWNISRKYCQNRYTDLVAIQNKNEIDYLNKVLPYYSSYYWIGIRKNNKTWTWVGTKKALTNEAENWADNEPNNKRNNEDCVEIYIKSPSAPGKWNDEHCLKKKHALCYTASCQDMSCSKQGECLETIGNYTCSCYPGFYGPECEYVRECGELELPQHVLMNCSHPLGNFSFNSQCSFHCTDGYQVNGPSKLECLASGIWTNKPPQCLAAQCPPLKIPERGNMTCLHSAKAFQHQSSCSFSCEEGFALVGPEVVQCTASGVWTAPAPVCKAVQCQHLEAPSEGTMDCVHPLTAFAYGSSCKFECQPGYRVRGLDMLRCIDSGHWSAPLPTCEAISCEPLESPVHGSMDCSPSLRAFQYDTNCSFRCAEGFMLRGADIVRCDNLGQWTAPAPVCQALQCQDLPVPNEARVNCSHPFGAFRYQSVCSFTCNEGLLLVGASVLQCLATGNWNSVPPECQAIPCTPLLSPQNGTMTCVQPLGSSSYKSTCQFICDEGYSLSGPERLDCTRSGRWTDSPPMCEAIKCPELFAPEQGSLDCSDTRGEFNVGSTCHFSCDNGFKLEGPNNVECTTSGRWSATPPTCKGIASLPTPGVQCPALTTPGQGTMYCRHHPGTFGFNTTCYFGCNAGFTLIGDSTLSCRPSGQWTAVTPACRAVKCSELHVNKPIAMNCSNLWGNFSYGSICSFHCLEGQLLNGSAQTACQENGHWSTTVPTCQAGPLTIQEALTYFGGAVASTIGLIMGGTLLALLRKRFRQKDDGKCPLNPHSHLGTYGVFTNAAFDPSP

[2] = target: T2, E-selectin (Homo sapiens, UniProt P16581); assay: Inhibitory activity against Selectin E IgG chimeras binding to sLex coating 96 wells using competitive cell-free ELISA assay was determined.
T2 sequence (P16581 whole entry): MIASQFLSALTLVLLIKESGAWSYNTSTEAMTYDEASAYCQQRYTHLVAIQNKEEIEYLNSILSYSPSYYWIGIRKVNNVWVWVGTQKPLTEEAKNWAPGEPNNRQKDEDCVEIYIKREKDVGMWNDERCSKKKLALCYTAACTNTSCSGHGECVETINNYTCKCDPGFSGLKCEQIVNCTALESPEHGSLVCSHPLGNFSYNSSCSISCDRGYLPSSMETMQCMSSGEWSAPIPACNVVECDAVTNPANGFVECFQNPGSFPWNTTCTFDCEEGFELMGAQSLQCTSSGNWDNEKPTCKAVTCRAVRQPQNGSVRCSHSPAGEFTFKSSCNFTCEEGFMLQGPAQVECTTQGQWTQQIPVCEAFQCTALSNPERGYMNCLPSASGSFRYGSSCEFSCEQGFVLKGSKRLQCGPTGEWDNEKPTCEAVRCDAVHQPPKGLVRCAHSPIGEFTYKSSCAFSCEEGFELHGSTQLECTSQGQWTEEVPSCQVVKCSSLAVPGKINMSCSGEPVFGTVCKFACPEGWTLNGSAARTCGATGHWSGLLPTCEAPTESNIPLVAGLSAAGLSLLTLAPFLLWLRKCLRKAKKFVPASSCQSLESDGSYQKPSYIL

[3] = target: T3, L-selectin (Homo sapiens, UniProt P14151); assay: Inhibitory activity against L-selectin IgG chimeras binding to sLex coating 96 wells using competitive cell-free ELISA assay was determined.
T3 sequence (P14151 whole entry): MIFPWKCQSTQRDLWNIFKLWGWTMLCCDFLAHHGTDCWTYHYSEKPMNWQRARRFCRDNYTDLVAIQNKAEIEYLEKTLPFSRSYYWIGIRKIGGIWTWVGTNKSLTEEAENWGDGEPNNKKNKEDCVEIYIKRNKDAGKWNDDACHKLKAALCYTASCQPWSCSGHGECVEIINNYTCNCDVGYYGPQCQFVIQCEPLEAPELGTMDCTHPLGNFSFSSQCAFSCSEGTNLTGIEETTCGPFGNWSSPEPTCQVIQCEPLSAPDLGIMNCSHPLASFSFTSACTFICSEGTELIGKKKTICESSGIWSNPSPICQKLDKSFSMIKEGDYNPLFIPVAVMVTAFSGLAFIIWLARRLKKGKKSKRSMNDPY

Row | Structure (SMILES) | IC50 [1] | IC50 [2] | IC50 [3]
1 | COc1ccc(C2(C(=O)O)CCCCC2)cc1C1OCC(O)C(O)C1O (stereo unspecified) | 8 µM | > 1000 µM | 11 µM
2 | COc1ccc(CCCC(=O)O)cc1C1OC(C)C(O)C(O)C1O (stereo unspecified) | 5 µM | > 1000 µM | 170 µM
3 | COc1ccc(CC(=O)O)cc1C1OC(C)C(O)C(O)C1O (stereo unspecified) | 1 µM | > 1000 µM | 3 µM
4 | COc1ccc(C2(C(=O)O)CCCCC2)cc1C1OC(CO)C(O)C(O)C1O (stereo unspecified) | 3 µM | > 1000 µM | 1 µM
5 | COc1cc(CC(=O)O)c(C2OC(C)C(O)C(O)C2O)c(OC)c1OC (stereo unspecified) | 40 µM | > 1000 µM | 114 µM
6 | COc1ccc(C2(C(=O)O)CCCCC2)cc1[C@H]1O[C@@H](C)[C@H](O)[C@H](O)[C@@H]1O | 22 µM | > 1000 µM | 35 µM
7 | COc1ccc(C2(C(=O)O)CCCCC2)cc1[C@H]1O[C@@H](C)[C@@H](O)[C@H](O)[C@@H]1O | 7 µM | > 1000 µM | 106 µM
